Results taken from PubChem BioAssay (NCI).
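Cells were grown in 96-well plates and exposed to each compound for 48 hours at five concentrations; endpoints were interpolated linearly between bracketing concentrations, or set to the highest concentration if not reached. TGI: total growth inhibition.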

Tests used:
Assay in all cases: inhibition of tumour cell growth, NCI panel, 48 h
786-0 renal = test system: 786-0 renal
A498 renal = test system: A498 renal
A549 NSCLC = test system: A549 NSCLC
ACHN renal = test system: ACHN renal
BT-549 breast = test system: BT-549 breast
CAKI-1 renal = test system: CAKI-1 renal
CCRF-CEM leukemia = test system: CCRF-CEM leukemia
COLO 205 colon = test system: COLO 205 colon
DU-145 prostate = test system: DU-145 prostate
EKVX NSCLC = test system: EKVX NSCLC
HCC-2998 colon = test system: HCC-2998 colon
HCT-116 colon = test system: HCT-116 colon
HCT-15 colon = test system: HCT-15 colon
HL-60(TB) leukemia = test system: HL-60(TB) leukemia
HOP-62 NSCLC = test system: HOP-62 NSCLC
HOP-92 NSCLC = test system: HOP-92 NSCLC
HS 578T breast = test system: HS 578T breast
HT29 colon = test system: HT29 colon
IGROV1 ovarian = test system: IGROV1 ovarian
K-562 leukemia = test system: K-562 leukemia
KM12 colon = test system: KM12 colon
LOX IMVI melanoma = test system: LOX IMVI melanoma
M14 melanoma = test system: M14 melanoma
MALME-3M melanoma = test system: MALME-3M melanoma
MCF7 breast = test system: MCF7 breast
MDA-MB-231 breast = test system: MDA-MB-231 breast
MDA-MB-435 = test system: MDA-MB-435
MDA-N = test system: MDA-N
MOLT-4 leukemia = test system: MOLT-4 leukemia
NCI-H226 lung = test system: NCI-H226 lung
NCI-H23 lung = test system: NCI-H23 lung
NCI-H460 lung = test system: NCI-H460 lung
NCI-H522 lung = test system: NCI-H522 lung
NCI/ADR-RES ovarian = test system: NCI/ADR-RES ovarian
OVCAR-3 ovarian = test system: OVCAR-3 ovarian
OVCAR-4 ovarian = test system: OVCAR-4 ovarian
OVCAR-5 ovarian = test system: OVCAR-5 ovarian
OVCAR-8 ovarian = test system: OVCAR-8 ovarian
PC-3 prostate = test system: PC-3 prostate
RPMI-8226 leukemia = test system: RPMI-8226 leukemia
RXF 393 renal = test system: RXF 393 renal
SF-268 CNS = test system: SF-268 CNS
SF-295 CNS = test system: SF-295 CNS
SF-539 CNS = test system: SF-539 CNS
SK-MEL-2 melanoma = test system: SK-MEL-2 melanoma
SK-MEL-28 melanoma = test system: SK-MEL-28 melanoma
SK-MEL-5 melanoma = test system: SK-MEL-5 melanoma
SK-OV-3 ovarian = test system: SK-OV-3 ovarian
SN12C renal = test system: SN12C renal
SNB-19 CNS = test system: SNB-19 CNS
SNB-75 CNS = test system: SNB-75 CNS
SR leukemia = test system: SR leukemia
SW-620 colon = test system: SW-620 colon
T-47D breast = test system: T-47D breast
TK-10 renal = test system: TK-10 renal
U251 CNS = test system: U251 CNS
UACC-257 melanoma = test system: UACC-257 melanoma
UACC-62 melanoma = test system: UACC-62 melanoma
UO-31 renal = test system: UO-31 renal
DLD-1 colon = test system: DLD-1 colon
DMS 114 small cell lung = test system: DMS 114 small cell lung
DMS 273 small cell lung = test system: DMS 273 small cell lung
HOP-18 NSCLC = test system: HOP-18 NSCLC
KM20L2 colon = test system: KM20L2 colon
LXFL 529 NSCLC = test system: LXFL 529 NSCLC
M19-MEL melanoma = test system: M19-MEL melanoma
RXF-631 renal = test system: RXF-631 renal
SNB-78 CNS = test system: SNB-78 CNS

SMILES: Cc1ccc(/C=C2\CCC/C(=C\c3ccc(O)c(CN4CCCCC4)c3)C2=O)cc1
- TGI (786-0 renal): 14.3 µM
- TGI (A498 renal): 13.9 µM
- TGI (A549 NSCLC): > 49.3 µM
- TGI (ACHN renal): 18.6 µM
- TGI (BT-549 breast): 23.9 µM
- TGI (CAKI-1 renal): 33 µM
- TGI (CCRF-CEM leukemia): > 29.1 µM
- TGI (COLO 205 colon): 44.6 µM
- TGI (DU-145 prostate): 16.6 µM
- TGI (EKVX NSCLC): 27.8 µM
- TGI (HCC-2998 colon): 15.3 µM
- TGI (HCT-116 colon): 7.65 µM
- TGI (HCT-15 colon): 18.3 µM
- TGI (HL-60(TB) leukemia): > 100 µM
- TGI (HOP-62 NSCLC): > 51.7 µM
- TGI (HOP-92 NSCLC): 25.2 µM
- TGI (HS 578T breast): 38.5 µM
- TGI (HT29 colon): 3.78 µM
- TGI (IGROV1 ovarian): 26.5 µM
- TGI (K-562 leukemia): > 38.3 µM
- TGI (KM12 colon): 8.33 µM
- TGI (LOX IMVI melanoma): 10.3 µM
- TGI (M14 melanoma): > 37.7 µM
- TGI (MALME-3M melanoma): 43.7 µM
- TGI (MCF7 breast): 23.1 µM
- TGI (MDA-MB-231 breast): 22.3 µM
- TGI (MDA-MB-435): 25.5 µM
- TGI (MDA-N): 25.2 µM
- TGI (MOLT-4 leukemia): 9.03 µM
- TGI (NCI-H226 lung): 23.3 µM
- TGI (NCI-H23 lung): 18.3 µM
- TGI (NCI-H460 lung): 20 µM
- TGI (NCI-H522 lung): 17.9 µM
- TGI (NCI/ADR-RES ovarian): 12 µM
- TGI (OVCAR-3 ovarian): 36.5 µM
- TGI (OVCAR-4 ovarian): 33 µM
- TGI (OVCAR-5 ovarian): 38.9 µM
- TGI (OVCAR-8 ovarian): 8.37 µM
- TGI (PC-3 prostate): > 47.5 µM
- TGI (RPMI-8226 leukemia): > 100 µM
- TGI (RXF 393 renal): 27.1 µM
- TGI (SF-268 CNS): 13 µM
- TGI (SF-295 CNS): 26 µM
- TGI (SF-539 CNS): 26.6 µM
- TGI (SK-MEL-2 melanoma): > 54.8 µM
- TGI (SK-MEL-28 melanoma): > 53.5 µM
- TGI (SK-MEL-5 melanoma): 19.1 µM
- TGI (SK-OV-3 ovarian): 26.3 µM
- TGI (SN12C renal): 26.5 µM
- TGI (SNB-19 CNS): 36.5 µM
- TGI (SNB-75 CNS): 22.6 µM
- TGI (SR leukemia): 8.62 µM
- TGI (SW-620 colon): 17.7 µM
- TGI (T-47D breast): 60.2 µM
- TGI (TK-10 renal): 37.9 µM
- TGI (U251 CNS): 37.6 µM
- TGI (UACC-257 melanoma): 25.3 µM
- TGI (UACC-62 melanoma): 9.92 µM
- TGI (UO-31 renal): 23.3 µM

SMILES: COc1cc2c(c(OC)c1)C1(CC(CC#N)C2)SCCS1 (centres undefined)
- TGI (786-0 renal): > 100 µM
- TGI (A498 renal): > 100 µM
- TGI (A549 NSCLC): > 100 µM
- TGI (ACHN renal): > 100 µM
- TGI (CAKI-1 renal): > 100 µM
- TGI (CCRF-CEM leukemia): > 100 µM
- TGI (COLO 205 colon): > 100 µM
- TGI (DLD-1 colon): > 100 µM
- TGI (DMS 114 small cell lung): > 100 µM
- TGI (DMS 273 small cell lung): > 100 µM
- TGI (HCC-2998 colon): > 100 µM
- TGI (HCT-116 colon): > 100 µM
- TGI (HCT-15 colon): > 100 µM
- TGI (HL-60(TB) leukemia): > 100 µM
- TGI (HOP-18 NSCLC): > 100 µM
- TGI (HOP-62 NSCLC): > 100 µM
- TGI (IGROV1 ovarian): > 100 µM
- TGI (K-562 leukemia): > 100 µM
- TGI (KM12 colon): > 100 µM
- TGI (KM20L2 colon): > 100 µM
- TGI (LXFL 529 NSCLC): > 100 µM
- TGI (M14 melanoma): > 100 µM
- TGI (M19-MEL melanoma): > 100 µM
- TGI (MALME-3M melanoma): > 100 µM
- TGI (MOLT-4 leukemia): > 100 µM
- TGI (NCI-H226 lung): > 100 µM
- TGI (NCI-H460 lung): > 100 µM
- TGI (NCI-H522 lung): 4.69 µM
- TGI (OVCAR-3 ovarian): > 100 µM
- TGI (OVCAR-4 ovarian): > 100 µM
- TGI (OVCAR-8 ovarian): > 100 µM
- TGI (RPMI-8226 leukemia): > 100 µM
- TGI (RXF 393 renal): > 100 µM
- TGI (RXF-631 renal): > 100 µM
- TGI (SF-268 CNS): > 100 µM
- TGI (SF-539 CNS): > 100 µM
- TGI (SK-MEL-2 melanoma): > 100 µM
- TGI (SK-MEL-28 melanoma): > 100 µM
- TGI (SK-MEL-5 melanoma): > 100 µM
- TGI (SK-OV-3 ovarian): > 100 µM
- TGI (SN12C renal): > 100 µM
- TGI (SNB-19 CNS): > 100 µM
- TGI (SNB-75 CNS): > 100 µM
- TGI (SNB-78 CNS): > 100 µM
- TGI (SW-620 colon): > 100 µM
- TGI (TK-10 renal): > 100 µM
- TGI (U251 CNS): > 100 µM
- TGI (UACC-257 melanoma): > 100 µM
- TGI (UACC-62 melanoma): > 100 µM
- TGI (UO-31 renal): > 100 µM
